From patent US20260008760A1, “DIPEPTIDYL PEPTIDASE 1 INHIBITORS AND USES THEREOF” (Insmed Incorporated, priority 2024, published 2026) come the findings set out here.

One test deals with DPP1 in HL-60 cells (Homo sapiens, UniProt P53634). Description: DPP1 Cell Single-Point Percent Inhibition Testing. The format is cell-based. Details: host or cells: HL-60 cells. Conditions: final compound concentration 5 nM, n = 1. The method, boiled down:
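HL-60 cells in unsupplemented RPMI preincubated 60 min at 37 °C with test article (5 nM final, 0.1% DMSO), then given cell-permeable H-Gly-Phe-AFC (100 μM final) for 30 min. Fluorescence at 400/505 nm; percent inhibition versus vehicle after subtracting cell-free background and 10 μM brensocatib non-specific signal.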

Another test has as its target human DPP1 enzyme (Homo sapiens, UniProt P53634). The experiment in a line: Human DPP1 Enzyme Single-Point Percent Inhibition Testing (HL-60 lysate). The conditions noted are these: final compound concentration of 10 nM, 400 μM H-Gly-Arg-AMC, n = 1. Details: A crude lysate of HL-60 cells (ATCC; Manassas, VA) was used as a source of human DPP1 enzyme; host or cells: HL-60 cells (crude lysate). Type of test: biochemical. Summed up:
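Enzyme source was HL-60 cell lysate in MES pH 6.0 buffer with NaCl and DTT, pre-incubated 10 min at 37° C with 10 nM compound (final, 1% DMSO). Cleavage of 400 μM H-Gly-Arg-AMC was followed at 350/450 nm over 90 min at 37° C, and percent inhibition was taken against vehicle wells.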

human DPP1 enzyme, sequence (P53634 25-463): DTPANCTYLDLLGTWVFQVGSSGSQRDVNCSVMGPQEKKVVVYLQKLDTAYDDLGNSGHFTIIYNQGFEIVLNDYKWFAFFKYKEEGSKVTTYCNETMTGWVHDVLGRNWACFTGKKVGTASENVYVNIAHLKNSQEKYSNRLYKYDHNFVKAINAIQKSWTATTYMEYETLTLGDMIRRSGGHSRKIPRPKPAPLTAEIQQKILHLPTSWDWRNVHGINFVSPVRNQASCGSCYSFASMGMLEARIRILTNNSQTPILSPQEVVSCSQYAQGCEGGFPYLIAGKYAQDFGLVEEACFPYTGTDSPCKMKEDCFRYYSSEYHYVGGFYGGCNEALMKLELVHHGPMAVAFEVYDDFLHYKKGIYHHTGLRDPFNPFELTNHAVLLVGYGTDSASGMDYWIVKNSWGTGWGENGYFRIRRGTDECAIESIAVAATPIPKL
DPP1 in HL-60 cells, sequence (P53634 25-463): as above

The term inhibition denotes the relative decrease from the control value, in per cent. The molecule `CO[C@H]1CCO[C@H](C(=O)N[C@H](C#N)Cc2ccc(-c3ccc4cnn(C)c4c3)cc2F)CNC1` [Compound H19] registered an inhibition at 0.005 µM on DPP1 in HL-60 cells of at most 76.5%. The molecule further yielded an inhibition at 0.01 µM against human DPP1 enzyme of at least 66.7%.
For `CO[C@H]1CCO[C@H](C(=O)N[C@H](C#N)Cc2ccc(-c3ccc4c(c3)C3(CC4)CCN(C)CC3)cc2F)CNC1` [Compound F24] the same measures were at most 76.5% and at least 66.7%.
`N#C[C@H](Cc1ccc(-c2ccc(S(=O)(=O)N3CCC3)cc2)cc1F)NC(=O)[C@@H]1CNCCCO1` [Compound 49] returned an inhibition at 0.005 µM at DPP1 in HL-60 cells of at most 76.5%. Further, the inhibition at 0.01 µM against human DPP1 enzyme is at most 40%.
On DPP1 in HL-60 cells, `CCN1C(=O)Cc2ccc(-c3ccc(C[C@@H](C#N)NC(=O)[C@@H]4CNC[C@@H](OC)CCO4)cc3)cc21` [Compound G5] gave an inhibition at 0.005 µM of at most 76.5%. On human DPP1 enzyme, this molecule showed an inhibition at 0.01 µM of 40 to 66.7%.
For `CN1CCC(n2ncc3ccc(-c4ccc(C[C@@H](C#N)NC(=O)[C@@H]5CNCCCO5)c(F)c4)cc32)CC1` [Compound A144] the same measures were at most 76.5% and 40 to 66.7%.
For `COC1CNC[C@@H](C(=O)N[C@H](C#N)Cc2ccc(-c3ccc4nnn(C)c4c3)cc2F)OC1` (stereo partly drawn) [Compound H14], the inhibition at 0.005 µM on DPP1 in HL-60 cells fell in the range of 76.5 to 93.9%. The same molecule had an inhibition at 0.01 µM on human DPP1 enzyme of at least 66.7%.
Molecule `N#C[C@H](Cc1ccc(-c2ccc(S(=O)(=O)N3CCC3)cc2)cc1)NC(=O)[C@@H]1CNCCCCO1` [Compound 46] gave an inhibition at 0.005 µM against DPP1 in HL-60 cells of at most 76.5%. Moreover, the inhibition at 0.01 µM against human DPP1 enzyme is at most 40%.
In turn, `CO[C@@H]1CCNC[C@@H](C(=O)N[C@H](C#N)Cc2ccc(-c3ccc4cnn(C5CCN(C)CC5)c4c3)cc2F)OC1` [Compound H4] registered an inhibition at 0.005 µM against DPP1 in HL-60 cells of at most 76.5%. For the same molecule, at human DPP1 enzyme, the inhibition at 0.01 µM was at least 66.7%.
For `Cc1cn2cc(-c3ccc(C[C@@H](C#N)NC(=O)[C@@H]4CNCCCO4)cc3)cc2c(C)n1` [Compound A116] the same measures were at most 76.5% and at most 40%.
For `C[C@@H]1NC[C@@H](C(=O)N[C@H](C#N)Cc2ccc(-c3ccc4cnn(C5CCN(C)CC5)c4c3)cc2)OC[C@@H]1O` [Compound H27] the same measures were at most 76.5% and at most 40%.
On the same counts, the results for `CO[C@@H]1CCNC[C@@H](C(=O)N[C@H](C#N)Cc2ccc(-c3ccc4c(c3)C3(CCN(C5COC5)CC3)OC4)cc2)OC1` [Compound F9] are at most 76.5% and at least 66.7%.
`COC1CNC[C@@H](C(=O)N[C@H](C#N)Cc2ccc(-c3ccn4ccnc4c3)cc2)OC1` (stereo partly drawn) [Compound H40] came in with an inhibition at 0.005 µM on DPP1 in HL-60 cells of at most 76.5%. The inhibition at 0.01 µM at human DPP1 enzyme lay within 40 to 66.7%.
Molecule `CO[C@H]1CCO[C@H](C(=O)N[C@H](C#N)Cc2ccc(-c3cc4c(C)nc(C)c(C)n4c3)cc2)CNC1` [Compound A129] returned an inhibition at 0.005 µM against DPP1 in HL-60 cells of 76.5 to 93.9%. For the same molecule, the inhibition at 0.01 µM against human DPP1 enzyme was in the range of 40 to 66.7%.
On the same counts, the results for `Cn1ncc2ccc(-c3ccc(C[C@@H](C#N)NC(=O)[C@@H]4CNCCCCO4)cc3)cc21` [Compound H35] are at most 76.5% and at most 40%.
On the same counts, the results for `COC1CNC[C@@H](C(=O)N[C@H](C#N)Cc2ccc(-c3cc4c(C)nc(C)c(C)n4c3)cc2)OC1` (stereo partly drawn) [Compound A126] are at least 93.9% and at least 66.7%.
For `CO[C@H]1CCO[C@H](C(=O)N[C@H](C#N)Cc2ccc(-c3ccc4c(c3)C3(CN(C)C3)OC4=O)cc2F)CNC1` [Compound F26] the same measures were at most 76.5% and at least 66.7%.
The molecule `CO[C@H]1CCO[C@H](C(=O)N[C@H](C#N)Cc2ccc(-c3ccc(CN4CCN(C)CC4)cc3)cc2)CNC1` [Compound F23] came in with an inhibition at 0.005 µM against DPP1 in HL-60 cells of at most 76.5%. The same molecule had an inhibition at 0.01 µM on human DPP1 enzyme of at most 40%.
On the same counts, the results for `CO[C@H]1CCO[C@H](C(=O)N[C@H](C#N)Cc2ccc(-c3cnc4c(n3)CCCC4)cc2)CNC1` [Compound A96] are at most 76.5% and 40 to 66.7%.
